pEC50: −log10 of the molar value. Like-named read-outs stand apart in the source and are kept apart here.
What was measured:
[1] = tested on: HCV GT2a genomic replicon Luc-Neo-JFH-1; test: Luciferase reporter replicon antiviral assay, GT2a; type: cell-based; settings: Hepatitis C virus
Description: (§1) The anti-HCV activity of STG-175 was conducted using a panel of luciferase reporter replicon cell lines including GT1a, GT1b, GT2a, GT3a and GT4a as we described previously. The GT1a subgenomic renilla luciferase reporter replicon H77 RLucP (7) was supplied by Dr. Delaney. The GT1b subgenomic firefly luciferase reporter replicon pFK-I389/NS3-3’ [29] was supplied by Dr. Bartenschlager. The GT1B subgenomic NS3, NS5A and NS5B mutants were created via homologous recombination using the In-Fusion HD Cloning kit (Clontech) as we described previously. The GT2a genomic luciferase reporter replicon Luc-Neo-JFH-1 was generated as previously. The plasmid pFK-Luc-JFH1 was supplied from Drs. […] The CellTiter-Fluor™ Cell Viability Assay is a non-lytic fluorescence assay, which measures the number of live cells. […] Luciferase activity was determined using the Luciferase Assay System (Promega) in a Berthold luminometer. […] Viable cells continuously convert resazurin to resorufin, increasing the overall fluorescence and color of the media surrounding cells.
(§2) Fig 2 Anti-HCV activities of STG-175 among GTs. […] Luciferase activity was determined using the Luciferase Assay System in a Berthold luminometer. […] Data are expressed as mean of relative light units and calculated EC50s are presented. […]

[2] = alamarBlue cytotoxicity (CC50), GT2a replicon cell line; settings: human
Description: as §1, §2

GT2a replicon cell line = test: as above; settings: GT2a replicon cell line
Description: as §1, §2

Structure (SMILES): CC=CCC(C)C(O)C1C(=O)NC(CC)C(=O)N(C)C(CSCCCCO)C(=O)N(C)C(CC(C)(C)O)C(=O)NC(C(C)C)C(=O)N(C)C(CC(C)C)C(=O)NC(C)C(=O)NC(C)C(=O)N(C)C(CC(C)C)C(=O)N(C)C(CC(C)C)C(=O)N(C)C(C(C)C)C(=O)N1C (stereo not shown) [STG-175]
- pEC50 ([1]; 72 h post-drug addition, luciferase, read-out: EC50 GT2a): 7.94
- pEC50 ([1]; Fig 2D table, unit inferred, read-out: EC50 GT2a (Fig 2D)): 7.94
- CC50 at 72 h [2]: > 10000 nM
- cell viability toward increasing doses (alamarBlue) (GT2a replicon cell line): lack of cellular cytotoxicity
